The results in this text go back to ChEMBL document CHEMBL1201862, “PubChem BioAssay data set” (2004).

Some test systems named below: HCT-116; HCT-15; HOP-62; Hs-578T; LOX IMVI; MCF7; MDA-MB-231; MOLT-4; Malme-3M; OVCAR-4; OVCAR-5; OVCAR-8; RXF 393; SF-539; SK-MEL-2; SK-MEL-5; SNB-19; U-251; UACC-257.
Holding throughout (test): NCI anticancer screen, dose series, 48 h

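Cells were grown in 96-well plates and exposed to each compound for 48 hours at five concentrations; endpoints were interpolated linearly between bracketing concentrations, or set to the highest concentration if not reached. GI50 marks 50% less growth.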 Calls of active or inactive are those of the source. Cut-off read from the data, not from the text of the source: active = GI50 up to about 1.1 µM and inactive = higher. Bounds are passed on as bounds.

As to `CC(=O)OC1=C(c2ccccc2)S(=O)(=O)c2ccccc21`, the GI50 in the test on HCT-116 was > 100 µM (inactive); in the test on HCT-15, over 100 µM; in the test on HOP-62 it was > 100 µM (inactive); with Hs-578T it was > 100 µM (inactive); with LOX IMVI, > 100 µM (inactive); in the test on MCF7 it was > 100 µM (inactive). The GI50 in the test with MDA-MB-231, in the test on MOLT-4, in the test on Malme-3M, with OVCAR-4, in the test on OVCAR-5 and in the test with OVCAR-8 was > 100 µM (inactive) in each case. Besides, the GI50 is 64 µM (inactive) in the test with RXF 393; > 100 µM (inactive) in the test with SF-539; > 100 µM (inactive) in the test with SK-MEL-2; > 100 µM (inactive) in the test with SK-MEL-5; > 100 µM (inactive) with SNB-19; > 100 µM (inactive) in the test with U-251. The GI50 in the test with UACC-257 was > 100 µM (inactive).

Turning to `Cn1ccnc1Oc1ccc(Cl)cc1`, the GI50 with HCT-116 is 12 µM (inactive); in the test on HCT-15, 11.7 µM; in the test with HOP-62, 26.2 µM (inactive); in the test on Hs-578T, 24.4 µM (inactive); in the test with LOX IMVI it was 13.2 µM (inactive); in the test with MCF7, 12 µM (inactive). In addition, the GI50 in the test with MDA-MB-231 was 14.8 µM (inactive); in the test on MOLT-4 it was 2.38 µM (inactive); in the test with Malme-3M, 2.28 µM (inactive); in the test on OVCAR-4, 6.12 µM (inactive); with OVCAR-5 it was 15.6 µM (inactive); in the test on OVCAR-8, 7.69 µM (inactive). Also, the GI50 is 16.9 µM (inactive) with RXF 393; 11.9 µM (inactive) in the test on SF-539; 16.4 µM (inactive) in the test on SK-MEL-2; 14.1 µM (inactive) with SK-MEL-5; 33 µM (inactive) with SNB-19; 17.9 µM (inactive) in the test on U-251. In addition, the GI50 in the test with UACC-257 was 9.75 µM (inactive).

`COc1ccc([S+]([O-])Cc2cc(OC)c(OC)c(OC)c2)cc1` (stereo not given): the GI50 with HCT-116 was 40.4 µM (inactive); with HCT-15, 30.4 µM; with HOP-62, 45.5 µM (inactive); with Hs-578T it was > 100 µM (inactive); with LOX IMVI, 91.6 µM (inactive); in the test with MCF7 it was 39.5 µM (inactive). The GI50 is 84.5 µM (inactive) in the test on MDA-MB-231; 27 µM (inactive) in the test on MOLT-4; 58.3 µM (inactive) in the test on Malme-3M; > 100 µM (inactive) in the test on OVCAR-4; 42.9 µM (inactive) with OVCAR-5; 62.5 µM (inactive) in the test with OVCAR-8. In addition, the GI50 was 29.2 µM (inactive) with RXF 393; 56.5 µM (inactive) with SF-539; 38.1 µM (inactive) in the test with SK-MEL-2; 29.6 µM (inactive) with SK-MEL-5; 69.7 µM (inactive) in the test on SNB-19; 60.3 µM (inactive) in the test on U-251. Also, the GI50 in the test with UACC-257 is > 100 µM (inactive).

Turning to `Cc1cc(N=C2C=C(Br)C(=O)C(Br)=C2)cc(CN(CC(=O)O)CC(=O)O)c1O`, the GI50 with HCT-116 was > 100 µM (inactive); in the test with HCT-15, over 100 µM; in the test on HOP-62 it was > 100 µM (inactive); with Hs-578T, > 100 µM (inactive); with MCF7, > 100 µM (inactive); in the test with MDA-MB-231 it was > 100 µM (inactive). Further, the GI50 with MOLT-4, in the test on Malme-3M, in the test on OVCAR-4, with OVCAR-5, with OVCAR-8 and in the test on RXF 393 was > 100 µM (inactive) throughout. Moreover, the GI50 in the test on SF-539, in the test with SK-MEL-2, in the test on SK-MEL-5, in the test with SNB-19, in the test on U-251 and in the test with UACC-257 was > 100 µM (inactive) throughout.
